Measurements reported in patent publication US10870646B2, “Oxazolidinones and pharmaceutical compositions thereof for treating bacterial infections, including infection of Mycobacterium tuberculosis” (University of St. Thomas, priority 2017, dated 2020).
Converted amounts (≈) assume the structure as drawn. Read-outs that look alike come from different tables or passages of the source.

Tests used:
Staphylococcus aureus = test: MIC90 broth microdilution; type: cell-based; details: for MIC90: Staphylococcus aureus
Enterococcus faecalis = test: MIC90 broth microdilution; type: cell-based; details: for MIC90: Enterococcus faecalis
[1] = system: Mycobacterium tuberculosis; details: cited from earlier work; for MIC90: Mycobacterium tuberculosis, strain not stated, Kaushik et al. 2015 cited after the table
[2] = system: Acinetobacter baumannii ATCC 19606; test: MIC90 broth microdilution; type: cell-based; details: ATCC19606
[3] = system: Acinetobacter baumannii ACBA; test: MIC90 broth microdilution; type: cell-based
Enterobacter cloacae = test: MIC90 broth microdilution; type: cell-based; details: for MIC90: Enterobacter cloacae
Klebsiella pneumoniae = test: MIC90 broth microdilution; type: cell-based; details: for MIC90: Klebsiella pneumoniae
Pseudomonas aeruginosa = test: MIC90 broth microdilution; type: cell-based; details: for MIC90: Pseudomonas aeruginosa
[4] = system: Mycobacterium tuberculosis H37Rv; test: MIC90 broth macrodilution; type: cell-based
Mycobacterium abscessus = test: MIC90 broth microdilution; type: cell-based; details: for MIC90: Mycobacteroides abscessus
Mycobacterium avium = test: MIC90 broth microdilution; type: cell-based; details: for MIC90: Mycobacterium avium
[5] = system: Acinetobacter baumannii 6M-1b; test: MIC90 broth microdilution; type: cell-based
S. aureus [6] = details: Zurenko et al. 1996; cited from earlier work
Mtb H37Rv = test: Minimum bactericidal concentration (MBC99.9); type: cell-based, Mycobacterium tuberculosis
E. faecalis [7] = test: Minimum bactericidal concentration (MBC99.9); type: cell-based, Enterococcus faecalis; details: up to 8 times MIC90
S. aureus [8] = test: Minimum bactericidal concentration (MBC99.9); type: cell-based, Staphylococcus aureus; details: up to 8 times MIC90
E. faecalis [9] = type: cell-based, Enterococcus faecalis
S. aureus [10] = type: cell-based, Staphylococcus aureus
E. faecalis [11] = test: Checkerboard titration assay (drug-drug interaction); type: cell-based, Enterococcus faecalis; details: combined with biapenem, faropenem and tebipenem
S. aureus [12] = test: as above; type: cell-based, Staphylococcus aureus; details: combined with biapenem, faropenem and tebipenem
Mtb = test: as above; type: cell-based, Mycobacterium tuberculosis; details: combined with isoniazid or rifampicin
[13] = Acinetobacter baumannii ATCC 19606, read-out: MIC90
[14] = Acinetobacter baumannii ACBA, patient isolate
[15] = Acinetobacter baumannii ACBA, patient isolate, read-out: MIC90
[16] = Mycobacterium tuberculosis H37Rv, read-out: MIC90
[17] = Mycobacterium abscessus, read-out: MIC90
[18] = Acinetobacter baumannii 6M-1b, environmental isolate

Compound: C[C@@H](O)[C@H]1C(=O)N2C(C(=O)O)=C(SC3CN(C4=NCCS4)C3)[C@H](C)[C@H]12 [Tebipenem]
- MIC90 (Staphylococcus aureus; read-out: MIC90): 0.03 to 0.06 µg/mL (≈ 0.0782 to 0.156 µM)
- MIC90 (Enterococcus faecalis; read-out: MIC90): 0.25 to 0.5 µg/mL (≈ 0.652 to 1.3 µM)
- MIC90 [1]: 1.25 to 2.5 µg/mL

Compound: C[C@@H](O)[C@H]1C(=O)N2C(C(=O)[O-])=C(SC3Cn4cnc[n+]4C3)[C@H](C)[C@H]12 (some centres unmarked) [Biapenem]
- MIC90 (Staphylococcus aureus; read-out: MIC90): 0.007 to 0.015 µg/mL (≈ 0.02 to 0.0428 µM)
- MIC90 (Enterococcus faecalis; read-out: MIC90): 0.25 to 0.5 µg/mL (≈ 0.713 to 1.43 µM)
- MIC90 [1]: 2.5 to 5.0 µg/mL

Compound: COc1cccc2c1Oc1ccc(N3C[C@H](CNC(C)=O)OC3=O)cc1O2 [Compound T197, (S)—N-((3-(6-methoxydibenzo[b,e][1,4]dioxin-2-yl)-2-oxooxazolidin-5-yl)methyl)acetamide]
- MIC90 [2, 13]: > 64 µg/mL
- MIC90 [3, 14]: >64 µg/mL
- MIC90 [3, 15]: > 64 µg/mL
- MIC90 (Enterobacter cloacae; read-out: MIC90): > 64 µg/mL
- MIC90 (Klebsiella pneumoniae; read-out: MIC90): > 64 µg/mL
- MIC90 (Pseudomonas aeruginosa; read-out: MIC90): > 64 µg/mL
- MIC90 (Staphylococcus aureus; read-out: MIC90): 16 to 32 µg/mL (≈ 43.2 to 86.4 µM)
- MIC90 (Enterococcus faecalis; read-out: MIC90): 8 to 16 µg/mL (≈ 21.6 to 43.2 µM)
- MIC90 [4, 16]: 8 to 16 µg/mL (≈ 21.6 to 43.2 µM)
- MIC90 (Mycobacterium abscessus; [17]): > 64 µg/mL
- MIC90 (Mycobacterium avium; read-out: MIC90): > 64 µg/mL

Compound: CC(=O)NC[C@H]1CN(c2ccc(N3CCOCC3)c(F)c2)C(=O)O1 [Linezolid, reference compound]
- MIC90 [5, 18]: 0.25 to 0.50 µg/mL
- MIC90 ([5]; Acinetobacter baumannii, 6M1B, Acinetobacter baumannii 6M-1b, environmental isolate, read-out: MIC90): 0.25 to 4 µg/mL (≈ 0.741 to 11.9 µM)
- MIC90 [2, 13]: > 64 µg/mL
- MIC90 [3, 14]: >64 µg/mL
- MIC90 [3, 15]: > 64 µg/mL
- MIC90 (Enterobacter cloacae; read-out: MIC90): > 64 µg/mL
- MIC90 (Klebsiella pneumoniae; read-out: MIC90): 16 to 32 µg/mL (≈ 47.4 to 94.9 µM)
- MIC90 (Pseudomonas aeruginosa; read-out: MIC90): > 64 µg/mL
- MIC90 (Staphylococcus aureus; read-out: MIC90): 1 to 2 µg/mL (≈ 2.96 to 5.93 µM)
- MIC90 (Enterococcus faecalis; read-out: MIC90): 1 to 2 µg/mL (≈ 2.96 to 5.93 µM)
- MIC90 [4, 16]: 0.2 to 2 µg/mL (≈ 0.593 to 5.93 µM)
- MIC90 of linezolid ([1]; Mtb, Rodriguez et al. 2002): 0.5 to 2.0 µg/mL
- bactericidal or bacteriostatic activity (S. aureus [6]): bacteriostatic activity

Compound: CC(=O)NC[C@H]1CN(c2ccc3c(c2)Oc2ccccc2O3)C(=O)O1 [Compound T145]
- MIC90 [5]: 0.25 to 0.50 µg/mL
- MIC90 ([5]; Acinetobacter baumannii, 6M1B): 0.25 to 4 µg/mL (≈ 0.735 to 11.8 µM)
- MIC90 ([2]; Acinetobacter baumannii): 32 to 64 µg/mL (≈ 94 to 188 µM)
- MIC90 [3]: >64 µg/mL
- MIC90 ([3]; Acinetobacter baumannii): > 64 µg/mL
- activity against growth (in words) (Enterobacter cloacae): no activity
- MIC90 (Enterobacter cloacae): > 64 µg/mL
- activity against growth (in words) (Klebsiella pneumoniae): no activity
- MIC90 (Klebsiella pneumoniae): > 64 µg/mL
- activity against growth (in words) (Pseudomonas aeruginosa): no activity
- MIC90 (Pseudomonas aeruginosa): > 64 µg/mL
- activity against growth (in words) (Staphylococcus aureus): potent activity
- MIC90 (Staphylococcus aureus): 0.5 to 1 µg/mL (≈ 1.47 to 2.94 µM)
- activity against growth (in words) (Enterococcus faecalis): potent activity
- MIC90 (Enterococcus faecalis): 0.25 to 0.5 µg/mL (≈ 0.735 to 1.47 µM)
- MIC90 ([4]; Mycobacterium tuberculosis, H37RV): 0.5 to 1 µg/mL (≈ 1.47 to 2.94 µM)
- activity against growth (in words) (Mycobacterium abscessus): no activity
- MIC90 (Mycobacterium abscessus): > 64 µg/mL
- activity against growth (in words) (Mycobacterium avium): no activity
- MIC90 (Mycobacterium avium): > 64 µg/mL
- bactericidal or bacteriostatic activity (Mtb H37Rv; Mtb, 1, 2, 4 and 8 times MIC90): bactericidal activity
- MBC (Mtb H37Rv; Mycobacterium tuberculosis, Mtb H37Rv): 2 µg/mL (≈ 5.88 µM)
- bactericidal or bacteriostatic activity (E. faecalis [7]): bacteriostatic
- bactericidal or bacteriostatic activity (S. aureus [8]): bacteriostatic
- selection of spontaneous resistant mutants (E. faecalis [9]): failed to produce distinct colonies
- selection of spontaneous resistant mutants (S. aureus [10]): failed to produce distinct colonies
- drug-drug interaction (synergy, indifference, antagonism) (E. faecalis [11]): indifferent
- drug-drug interaction (synergy, indifference, antagonism) (S. aureus [12]): indifferent
- drug-drug interaction (synergy, indifference, antagonism) (Mtb): indifferent

Compound: C[C@@H](O)[C@H]1C(=O)N2C(C(=O)O)=C(S[C@@H]3CN[C@H](C(=O)N(C)C)C3)[C@H](C)[C@H]12 [Meropenem, reference compound]
- MIC90 [5, 18]: 1 to 2 µg/mL
- MIC90 [2, 13]: > 64 µg/mL
- MIC90 [3, 14]: >64 µg/mL
- MIC90 [3, 15]: > 64 µg/mL
- MIC90 (Enterobacter cloacae; read-out: MIC90): 0.13 to 0.25 µg/mL (≈ 0.339 to 0.652 µM)
- MIC90 (Klebsiella pneumoniae; read-out: MIC90): < 0.06 µg/mL
- MIC90 (Pseudomonas aeruginosa; read-out: MIC90): 0.25 to 0.5 µg/mL (≈ 0.652 to 1.3 µM)
- MIC90 (Staphylococcus aureus; read-out: MIC90): 0.06 to 0.13 µg/mL (≈ 0.156 to 0.339 µM)
- MIC90 (Enterococcus faecalis; read-out: MIC90): 4 to 8 µg/mL (≈ 10.4 to 20.9 µM)
- MIC90 [4, 16]: 4 to 8 µg/mL (≈ 10.4 to 20.9 µM)
- MIC90 (Mycobacterium abscessus; [17]): > 64 µg/mL
- MIC90 (Mycobacterium avium; read-out: MIC90): > 64 µg/mL

Compound: C[C@@H](O)[C@H]1C(=O)N2C(C(=O)O)=C([C@H]3CCCO3)S[C@H]12 [Faropenem]
- MIC90 (Staphylococcus aureus; read-out: MIC90): 0.015 to 0.03 µg/mL (≈ 0.0526 to 0.105 µM)
- MIC90 (Enterococcus faecalis; read-out: MIC90): 0.25 to 0.5 µg/mL (≈ 0.876 to 1.75 µM)
- MIC90 [1]: 2.5 to 5.0 µg/mL
